Like-named read-outs stand apart in the source and are kept apart here.
Key:
non-cancerous cells = test: Viable non-cancerous cells after incubation with anticancer drugs in various media; type: cell-based; parameters: Percentage of viable cells, Drugs in commercial formula with SRF: concentration or dose not given beside the values
wounds = test: Various drugs administered on wounds with or without sodium pyruvate or SRF: erythema rating and days to total re-epithelization; conditions: for Drug in commercial formula with SRF. Days to healing / Drug in commercial formula with sodium pyruvate only. Days to healing / Drug in commercial formula Days to healing: days to total re-epithelization
Method: All previous studies using pyruvate to treat wounds or be used as an antioxidant used only the sodium salt form of pyruvic acid. The drug products that were tested in previous studies used 1-3% sodium pyruvate and other sodium salts of alpha keto acids by weight 1-3% concentrations in the lotions and triple antibiotic formulations. […]

[1] = Rating 1-10, 1 most erythema, 10 no erythema
[2] = Rating 1-10, 1 most erythema, 10 no erythema, drug alone

Compound	Percentage of viable cells, Drugs in commercial formula (non-cancerous cells)	Percentage of viable cells, Drugs in commercial formula sodium pyruvate without SRF (non-cancerous cells)	Percentage of viable cells, Drugs in commercial formula with SRF (non-cancerous cells)	Percentage of viable cells after incubation with drugs (non-cancerous cells; drug)	Percentage of viable cells, Drugs in commercial formula with SRF repeat study (non-cancerous cells; repeat study)	Drug in commercial formula with SRF. Days to healing (wounds)	Drug in commercial formula with sodium pyruvate only. Days to healing (wounds)	Drug in commercial formula Days to healing (wounds; drug alone)	Drugs in commercial formula erythema (wounds; in vivo)	Drugs in commercial formula with SRF erythema (wounds; in vivo)	Drugs in commercial formula with sodium pyruvate only erythema (wounds; in vivo)	Drugs in commercial formula with SRF erythema (wounds; [1])	Drugs in commercial formula with sodium pyruvate only erythema (wounds; [1])	Drugs in commercial formula erythema (wounds; [2])	Percentage of viable cells after incubation with drugs (non-cancerous cells)	Percentage of viable cells, Drugs in commercial formula with SRF repeat study (non-cancerous cells)
N.N.O=C([O-])C1(C(=O)[O-])CCC1.[Pt+2] [Carboplatin]	50%	56%	87%	42%	97%											
Clc1ccccc1C(c1ccccc1)(c1ccccc1)n1ccnc1 [Chlotrimizole]						11 days	15 days	22 days	4	8	6					
CC(=O)OCC(CCn1cnc2cnc(N)nc21)COC(C)=O [Famciclovir]						12 days	14 days	17 days				7	6	5		
Nc1nc2c(ncn2CCC(CO)CO)c(=O)[nH]1 [Penciclovir]						12 days	16 days	17 days				8	7	7		
CC1=C(/C=C/C(C)=C/C=C/C(C)=C/CO)C(C)(C)CCC1 [Retinol]						9 days	15 days	19 days				7	3	1		
CC(C)(C#N)c1cc(Cn2cncn2)cc(C(C)(C)C#N)c1 [anastrozole]	25%	50%	86%												24%	94%
CN(Cc1ccc(C(C)(C)C)cc1)Cc1cccc2ccccc12 [butenafine]						16 days	18 days	21 days				5	4	3		
Cc1cc(C2CCCCC2)n(O)c(=O)c1 [ciclopirox]						9 days	11 days	20 days				9	5	4		
Clc1ccc(COC(Cn2ccnc2)c2ccc(Cl)cc2Cl)cc1 (centres unmarked) [econazole]						14 days	17 days	19 days				6	6	6		
CC[C@H]1OC(=O)[C@H](C)[C@@H](O[C@H]2C[C@@](C)(OC)[C@@H](O)[C@H](C)O2)[C@H](C)[C@@H](O[C@@H]2O[C@H](C)C[C@H](N(C)C)[C@H]2O)[C@](C)(O)C[C@@H](C)C(=O)[C@H](C)[C@@H](O)[C@]1(C)O [erythromycin]						9 days	13 days	19 days				8	5	6		
O=c1[nH]c(=O)n([C@H]2C[C@H](O)[C@@H](CO)O2)cc1F [floxuridine]	38%	58%	92%												38%	91%
CC(=O)N1CCN(c2ccc(OCC3COC(Cn4ccnc4)(c4ccc(Cl)cc4Cl)O3)cc2)CC1 (centres unmarked) [ketoconazole]						14 days	20 days	23 days				8	6	3		
NCc1ccc(S(N)(=O)=O)cc1 [mafenide]						12 days	14 days	18 days				7	8	8		
CN(Cc1cnc2nc(N)nc(N)c2n1)c1ccc(C(=O)N[C@@H](CCC(=O)O)C(=O)O)cc1 [methotrexate]	43%	68%	94%	42%	98%											
CN(C/C=C/c1ccccc1)Cc1cccc2ccccc12 [naftifine]						13 days	14 days	20 days				7	6	3		
C[C@@H]1[C@H](O)[C@@H](C)/C=C/C=C/CC/C=C/C=C/C=C/C=C/C(O[C@H]2O[C@H](C)[C@@H](O)[C@H](N)[C@@H]2O)CC2O[C@](O)(CC(O)C(O)CCC(O)CC(O)CC(O)CC(=O)O[C@H]1C)CC(O)C2C(=O)O (some centres unmarked) [nystatin]						12 days	14 days	17 days				8	6	2		
Clc1ccc(CO/N=C(\Cn2ccnc2)c2ccc(Cl)cc2Cl)c(Cl)c1 [oxiconazole]						11 days	14 days	18 days				9	7	6		
Clc1ccc(CSC(Cn2ccnc2)c2ccc(Cl)cc2Cl)cc1 (centres unmarked) [sulconazole]						11 days	15 days	20 days				8	6	4		
Cc1cccc(N(C)C(=S)Oc2ccc3ccccc3c2)c1 [tolnaftate]						10 days	13 days	21 days				7	7	7		
CC(C)[C@H](N)C(=O)OCCOCn1cnc2c(=O)[nH]c(N)nc21 [valaciclovir]						14 days	17 days	18 days				8	8	8		
microazole						11 days	12 days	19 days	5	7	6					
